The values below come from patent US20110263510A1, “Methods of Inhibiting Cell Death or Inflammation in a Mammal” (priority 2006, published 2011).

Assay [1] concerns hind-limbs of C57BL/6 mice, ischemia-reperfusion injury. Put plainly: hind-limb tourniquet ischemia (90 minutes) and reperfusion (3 hours), plasma creatine kinase. To be noted: pretreatment. It counts as in vivo, mouse. The procedure:
Skeletal muscle was made ischemic by applying a tourniquet to the hind-limbs of C57BL/6 mice for 90 minutes, then removing the tourniquet and allowing reperfusion for an additional 3 hours. Mice were treated with active peptide 1 (SEQ ID NO:17) or peptide 2 (SEQ ID NO:18) or peptide 3 (SEQ ID NO:19), or with the scrambled (control) peptide (SEQ ID NO:20). Peptide-1 (SEQ ID NO:17) is from the BH4 region of Bcl-2. Peptide-2 (SEQ ID NO:18) is from the first alpha helix of A1/Bfl-1. Peptide-3 (SEQ ID NO:19) is from the BH4 region of Bcl-XL. The amino acid sequences of peptide 1 (SEQ ID NO:17), peptide 2 (SEQ ID NO:18), peptide 3 (SEQ ID NO:19), and the scrambled (control) peptide (SEQ ID NO:20) are set forth in Table 1.
At the end of the 3 hours of reperfusion the mice were killed, and blood was taken for determination of plasma creatine kinase (CK) concentration. The CK concentration was used as an indicator of muscle injury. Elevated levels of CK indicate higher levels of muscle injury. […] The CK concentration for peptide 1 (SEQ ID NO:17) treated mice was 19,020+/−5481 IU/L (n=12) compared with control peptide (SEQ ID NO:20) where CK concentration was 60,530+/−5759 IU/L (n=12). The CK concentration for peptide 2 (SEQ ID NO:18) treated mice was 33,860+/−5997 IU/L (n=11) compared with control peptide (SEQ ID NO:20) where CK concentration was 69,430+/−11,170 IU/L (n=12). The CK concentration for peptide 3 (SEQ ID NO:19) treated mice was 49,500+/−3,901 IU/L (n=5) compared with control peptide (SEQ ID NO:20) where CK concentration was 80,880+/−11,430 IU/L (n=6).

Assay [2] deals with skeletal muscle ischemia-reperfusion injury. To be noted: Iwata et al., Blood 100:2077, 2002; cited from earlier work.
Assay [3] has as its system C57BL/6 mice subjected to hind limb ischemia and reperfusion. Put plainly: hind limb ischemia (aortic cross-clamp, 90 minutes) and reperfusion (3 hours), plasma creatine kinase. In kind it is in vivo. The note with it: 1 microgram/mouse intraperitoneally the day before, 12 mice per group. As for the experimental part:
Mouse skeletal muscle was made ischemic by cross-clamping the aorta distal to the renal artery for 90 minutes, then the clamp was removed and hind limb reperfusion continued for 3 hours. At the end of reperfusion (3 hours after clamp removal) the mice were killed, and the concentration of plasma creatine kinase (CK) was measured and used as an indicator of injury (creatine kinase concentration increases as a result of skeletal muscle injury).
Blood from EμT-Bcl-2 mice and their littermate control mice was drawn into heparin and plasma was extracted by centrifugation. One ml of plasma from EμT-Bcl-2 mice, or one ml of plasma from littermate control mice, was injected into the peritoneum of C57BL/6 mice the day before the mice were subjected to 90 minutes of ischemia and 3 hours of reperfusion as described in Example 1 herein. Blood was drawn from the mice and plasma CK concentration was determined at the end of reperfusion.
C57BL/6 mice were injected intraperitoneally with 1 μg per mouse of recombinant human Bcl-2 (rBcl-2) (SEQ ID NO:15) or 1 μg per mouse of recombinant human ubiquitin (rUbiquitin), or the vehicle solution for rBcl-2 the day before the mice were subjected to hind limb ischemia (90 minutes) and reperfusion (180 minutes) as described in Example 1. […]

The subject of assay [4] is previously ischemic muscle of mice. Put plainly: tourniquet ischemia/reperfusion, skeletal muscle tissue viability by MTT. It counts as in vivo, mouse. To be noted: measured the following day. From the text:
The ability of a Bcl protein to inhibit cell death in a mammal, and/or to inhibit inflammation in a mammal concurrent with or after the onset of a condition expected to lead to cell death or inflammation, can be assessed, for example, in a mammal subjected to ischemia-reperfusion injury. As used herein, “determining,” “measuring,” and “assessing,” and “assaying” are used interchangeably and include both quantitative and qualitative determinations. For example, one or more of the following markers and/or assays can be used to assess the ability of a Bcl protein to inhibit cell death and/or inflammation in a mammal subjected to ischemia-reperfusion injury: 1. […] The viability of tissue subjected to I/R was measured using 3-(4,5-dimethylthiazol-2-yl)-2,5-diphenyl tetrazolium (MTT) (Ferrera et al., J Mol Cell Cardiol 25:1091, 1993). […]
Anesthetized mice were subjected to 90 minutes of tourniquet ischemia using a hemorrhoid ligator followed by reperfusion and were treated at various times by a subcutaneous injection of 1 microgram of either rhA1/Bfl-1 or rhBim, a pro-apoptotic Bcl-2 family member that lacks a BH4 or BH4-like domain (O'Connor et al., EMBO J. 17:384, 1998). The following day, mice were killed, the previously ischemic muscle removed, and tissue viability measured using 3-(4,5-dimethylthiazol-2-yl)-2,5-diphenyl tetrazolium (MTT). […]

Setting [5] is: experiment peptide 1 (n=12) versus control peptide (n=12).
[6] abbreviates: experiment peptide 2 (n=11) versus control peptide (n=12).
Where [7] appears, read: experiment peptide 3 (n=5) versus control peptide (n=6).

Ends that are not written are not given here. Peptide text beside a SMILES is read from it. * marks the point of attachment. Cbz = O=C(OCc1ccccc1)*; CH2F = FC*

As to “TWHMYGNQRDYIGDRSKIVYKLEYE [control peptide, scrambled (control) peptide, reference compound]”, the CK concentration is reported as 60,530+/−5759 IU/L in assay [1] (setting [5]), 69,430+/−11,170 IU/L in assay [1] (setting [6]) and 80,880+/−11,430 IU/L in assay [1] (setting [7]).

In the case of TGYDNREIVMKYIHYKLSQRGYEWD [peptide 1], the CK concentration in assay [1] (setting [5]) is recorded as 19,020+/−5481 IU/L.

On to MSQSNRELVVDFLSYKLSQKGYSWSQF [peptide 3], for which the CK concentration in assay [1] (setting [7]) is 49,500+/−3,901 IU/L.

In the case of “FGYIYRLAQDYLQCVLQIPZPGSGP (FGYIYRLAQDYLQCVLQIPXPGSGP; X not resolved here; also: Z at 20 undefined) [peptide 2, from the first alpha helix of A1/Bfl-1]”, in assay [1] (setting [6]), the CK concentration is reported as 33,860+/−5997 IU/L.

As to `CC(NC(=O)C(NC(=O)OCc1ccccc1)C(C)C)C(=O)NC(CC(=O)O)C(=O)CF` (stereo not drawn) [z-VAD] (Cbz-Val-Ala-Asp-CH2F; configuration not given here), in assay [2], the “DNA strand-breaks after extended ischemia and reperfusion of skeletal muscle” value is “prevents the strand-breaks”; the “plasma CK concentration after extended ischemia and reperfusion of skeletal muscle” value was “reduces the plasma CK concentration”.

B1: rhA1/Bfl-1: human A1 minus 25 amino acids at the carboxy terminal and addition of 6 histidine on the remaining protein (protein, listed as Homo sapiens)
chain: MTDCEFGYIYRLAQDYLQCVLQIPQPGSGPSKTSRVLQNVAFSVQKEVEKNLKSCLDNVNVVSVDTARTLFNQVMEKEFEDGIINWGRIVTIFAFEGILIKKLLRQQIAPDVDTYKEISYFVAEFIMNNTGEWIRQNGGWENGFVKKFEPKSHHHHHH
B1: the “plasma creatine kinase concentration compared to mice injected with rUbiquitin” value in assay [3] is reported as “significantly (p<0.05) lower”. In addition, the “average plasma creatine kinase concentration” value in assay [3] (90 min ischemia, 180 min reperfusion) is on record as 4,353+/−1284 IU/L. The “tissue viability normalized to tissue dry weight (MTT), compared to rhBim” value in assay [4] (1 microgram subcutaneous 4 hours after the start of reperfusion, FIG. 11) is recorded as “significantly greater tissue viability”; in assay [4] (1 microgram subcutaneous at the time of reperfusion, FIG. 10) it was “greater viability”.
